The subject of one test is rhyzoctonia solani. Nature of the test: Bioprotection of tomato plants by B. subtilis against rhyzoctonia solani. The format is in vivo. The conditions noted are these: RID with B. subtilis. As to the method: ISR assay. Arabidopsis thaliana or Microtome tomato seedlings were grown on NITCH-agar for 10 days. Then each seedling was transferred to separate solid MSgg plate. In order to test the effects of either treated or untreated B. subtilis on the Induced systemic resistance (ISR), bacterial cells were inoculated aside to the root (as mentioned above) and incubated at 23° C. for five days. Alternatively and as indicated in the corresponding figure legend, we inoculated the bacterial cells directly on the root. Then the first leaf was infected by puncturing by needle and inoculating with the necrosis-causing pathogens, Pseudomonas syringae DC3000 or rhyzoctonia solani (Kuhn). Five days after infection with P. syringae, plants were further analyzed.
Tomato infections (FIGS. 18A, 18B and 19).

Another test concerns P. syringae. Nature of the test: Bioprotection of Arabidopsis thaliana by B. subtilis against pseudomonas syringae. Format: in vivo. The conditions noted are these: 5 μM purified RID with 1000 B. subtilis cells, 100 or 10,000 pathogen cells. As to the method:
(§1) FIG. 19: Purified RID improved the bioprotection versus pseudomonas syringae and rhyzoctonia solani achieved by Bacillus. We used Bacillus strain B. subtilis 3610 (B.S). The bacterial strain was maintained on LB plates. 1000 cells either applied or non-applied with 5 μM of purified RID were added to Arabidopsis thaliana plants grown on MS solid media. Plants were incubated at 26±2° C. for 5 days. P. syringae (P.S) or R. solani (R.S) were grown in TSB at 37° C. to OD600=0.2 to 0.3 (3*10^8 cells per ml) and diluted to 100 cells, or 10,000 cells retrospectively (w/v) into the plant media. Plants were further incubated at 28±2° C. for 5 days and the growth of the pathogen was measured and compared with the control. Three replications were maintained for each assay. SD represents the average of three independent experiments.
(§2) Bacillus strain B. subtilis 3610 (B.S) was maintained on LB plates. 1000 cells with or without 5 μM of purified RID were added to Arabidopsis thaliana plants grown on MS solid media. Plants were incubated at 26±2° C. for 5 days. P. syringae (P.S) or R. solani (R.S) were grown in TSB at 37° C. to OD600=0.2 to 0.3 (3*10^8 cells per ml) and diluted to 100 cells, or 10,000 cells retrospectively (w/v) into the plant media. Plants were further incubated at 28±2° C. for 5 days and the growth of the pathogen was measured and compared with the control. […]

For another test, the system named is B. subtilis biofilms. The test can be described thus: B. subtilis biofilm stability / maintenance in vitro. The format is cell-based. Conditions: in vitro and in vivo, specific environmental conditions such as iron starvation. The method, then:
Shown are biofilms of treated and untreated B. subtilis biofilms.
Strains and Media All experiments were performed with B. subtilis NCBI3610 and its derivatives. Assays were carried out with the biofilm-inducing medium, MSgg: 5 mM potassium phosphate, 100 mM MOPS (pH 7), 2 mM MgCl2, 50 μM MnCl2, 1 μM ZnCl2, 2 μM thiamine, 0.5% glycerol, 0.5% glutamate, 50 μg/ml tryptophan, 50 μg/mlphenylalanine 50 μg/ml threonine, 700 μM CaCl2, and 50 μM (for growth assays) or 125 μM (for biofilm assays) FeCl3^1. A solid MSgg medium was obtained by adding Bacto agar (Difco) to a final concentration of 1.5%. When necessary, selective medium was prepared with LB-agar or LB broth, supplemented with: 100 μg/ml ampicillin (amp) (AG Scientific), or 10 μg/ml kanamycin (kan) (AG Scientific), or 10 μg/ml chloramphenicol (cam) (Amresco), or 10 μg/ml tetracycline (tet) (Amresco), or 100 μg/ml spectinomycin (spec) (Tivan Biotech), or 1 μg/mlerythromycin (erm) (Amresco)+25 μg/ml lincomycin (linc) (Sigma Aldrich).

Another test concerns R. solani. The test can be described thus: Bioprotection of Arabidopsis thaliana by B. subtilis against rhyzoctonia solani. Format: in vivo. Conditions: 5 μM purified RID with 1000 B. subtilis cells, 100 or 10,000 pathogen cells. As to the method:
as §1, §2

The subject of test [1] is B. subtilis 3610 Δ yclQ mutant biofilms. Nature of the test: Biofilm (pellicle) development of B. subtilis strain defective in iron uptake. The format is cell-based. The conditions noted are these: Δ yclQ mutant pellicles with or without purified RID. From the text: Biofilms grown in the presence and absence of RID in B. subtilis 3610 and its derivate (Δ yclQ) mutant in iron uptake pathways (Zawadzka et al., 2009). Untreated pellicles are shown in the top panel. Pellicles applied with purified RID are shown below.

The subject of test [2] is P. syringae strain DC3000 pv tomato. The test can be described thus: Bioprotection of tomato plants by B. subtilis against pseudomonas syringae. The format is in vivo. The conditions noted are these: 5 μM RID with 1000 B. subtilis cells; 100 or 10,000 pathogen cells. As to the method: FIGS. 18A-18B: Purified RID improved the bioprotection versus pseudomonas syringae achieved by Bacillus. Bacillus strain B. subtilis 3610 (B.S) was used. The bacterial strain was maintained on LB plates. 1000 cells either applied or non-applied with 5 μM of RID were added to tomato plants grown on agrophonic beads. Plants were incubated at 28±2° C. for 15 days. P. syringae strain DC3000 pv tomato (P.S) culture was grown in LB at 37° C. to OD600=0.2 to 0.3 (3*10^8 cells per ml) and diluted to 100 cells (FIG. 18A) 10,000 (FIG. 18B) cells retrospectively (w/v) into the plant media. Plants were further incubated at 28±2° C. for 10 days and the growth of the pathogen was measured and compared with the control. Three replications were maintained for each assay. SD represents the average of three independent experiments.
Bacillus strain B. subtilis 3610 (B.S) was maintained on LB plates. 1000 cells of B.S. with or without the addition of 5 μM of RID were added to tomato plants grown on agrophonic beads. Plants were incubated at 28±2° C. for 15 days.
P. syringae strain DC3000 pv tomato (P.S) was grown in LB at 37° C. to OD600=0.2 to 0.3 (3*10^8 cells per ml) and diluted to 10,000 cells retrospectively (w/v) into the plant media. Plants were further incubated at 28±2° C. for 10 days and the growth ofthe pathogen was measured and compared with the control. […]

Each structure is given as a SMILES string. “Also recorded” adds a separate entry of the source.

Consider `NCCCCNC(=O)/C=C/c1ccc(O)c(O)c1` [RID, caffeoyl putrescine], for which the “B. subtilis-mediated protection of tomato plants from rhyzoctonia solani” value in the test on rhyzoctonia solani was “enhanced the protective effects of Bacillus subtilis on tomato plant mortality”. For the same compound, the “B. subtilis-mediated protection of Arabidopsis (Brassicaceae) from pseudomonas syringae” value is “improved significantly protection achieved by Bacillus subtilis” in the test on P. syringae and “significantly improve the protection of Brassicaceae plants” in the test on P. syringae (listed as purified RID). In addition, the “disassembly of B. subtilis biofilms” value in the test with B. subtilis biofilms is “blocks the disassembly of B. subtilis biofilms in vitro and in vivo”. Further, the “B. subtilis-mediated protection of Arabidopsis (Brassicaceae) from rhyzoctonia solani” value in the test with R. solani was “improved significantly protection achieved by Bacillus subtilis”; in the test on R. solani (listed as purified RID), “significantly improve the protection of Brassicaceae plants”. In test [1], the “biofilm development of iron-uptake defective B. subtilis” value was “compensated for the biofilm defect; also recorded: can promote the development of biofilms”. In addition, the “B. subtilis-mediated protection of tomato plants from pseudomonas syringae pv. Tomato” value in test [2] was “enhanced the protective effects of Bacillus subtilis on tomato plant mortality; also recorded: improved significantly the duration of protection achieved by Bacillus subtilis and the resistance to high inoculum of infection”.

(Values after patent publication US20210144999A1, “COMPOSITIONS COMPRISING HYDROXYCINNAMIC ACID AND RELATED CONJUGATES, ANALOGUES AND DERIVATIVES, AND METHODS OF USE THEREOF” (YEDA RESEARCH AND DEVELOPMENT CO. LTD., priority 2017, published 2021).)
